The values below are quoted from earlier work in US20160346267A1, “Pharmaceutical Composition Comprising Apixaban” (SANDOZ AG, priority 2014, published 2016).

For the compound `COc1ccc(-n2nc(C(N)=O)c3c2C(=O)N(c2ccc(N4CCCCC4=O)cc2)CC3)cc1` [Apixaban, 1-(4-methoxyphenyl)-7-oxo-6-(4-(2-oxopiperidin-1-yl)phenyl)-4,5,6,7-tetrahydro-1H-pyrazolo[3,4-c]pyridine-3-carboxamide], the solubility result is given as “poorly soluble”.
